Results as given in patent publication US20120270917A1 (The Trustees of the University of Pennsylvania, priority 2009, published 2012).
Where a name gives a salt, the structure may show the parent alone. Read-outs that look alike come from different tables or passages of the source.

Molecular target: T1, AM2 (Influenza A virus, UniProt P0DOF5)
T1 construct: expressed in transfected cells
Assay: cell-based
Settings: for AM2 % inhibition at μM: concentration not given; for AM2 % inhibition at μM / IC50: Table 2

[1] = Oocytes, 100 μM, 2 min, mean ± SE, read-out: AM2 wt % of inhibition by 100 μM 2 min
[2] = read-out: AM2 % inhibition at 100 uM, 100 uM, Table 1

T1 sequence (P0DOF5 whole entry): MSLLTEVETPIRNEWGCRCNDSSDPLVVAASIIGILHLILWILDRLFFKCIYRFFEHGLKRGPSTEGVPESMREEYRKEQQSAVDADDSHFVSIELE

| Structure (SMILES) | inhibition at 100 µM [2] [%] | AM2 % inhibition at μM [%] | further results |
| --- | --- | --- | --- |
| NC12CC3CC(CC(C3)C1)C2 [Amantadine, reference compound] |  |  | inhibition at 100 µM [1]: 90.8 ± 2.5% |
| NC12CC3CC(C1)CC(O)(C3)C2 [Compound 38] | 87 |  |  |
| N=C(N)NC12CC3CC(CC(C3)C1)C2 [Compound 39, 1-(adamantyl)guanidine] | 97 |  |  |
| CC(NC(=N)N)C12CC3CC(CC(C3)C1)C2 (stereo not drawn) [Compound 40] | 94 |  |  |
| Cl.Cl.N=C(N)NC(=N)NC12CC3CC(CC(C3)C1)C2 [Compound 41] | 70 |  |  |
| NOC12CC3CC(CC(C3)C1)C2 [Compound 42, O-adamantylhydroxylamine] | 87 |  |  |
| Cc1nc[nH]c1/C=N/OC12CC3CC(CC(C3)C1)C2 [Compound 43, 5-Methyl-3H-imidazole-4-carbaldehyde O-adamantan-1-yl-oxime] | 81 |  |  |
| N=C(N)C12CC3CC(CC(C3)C1)C2 [Compound 44, Adamantane amidine hydrochloride] | 70 |  |  |
| NC1CSC2(SC1)C1CC3CC(C1)CC2C3 (stereo not drawn) [Compound 45] | 64 |  |  |
| N=C(NO)C12CC3CC(CC(C3)C1)C2 [Compound 46, N-hydroxyadamantanecarboximidamide] | 72.3 |  |  |
| C1NC2CC3CC1CC(C3)C2.Cl [Compound 47, 4-Azatricyclo[4.3.1.1^3,8]undecan hydrochloride] | 83.8 |  |  |
| NC(=O)C12CC3CC(CC(C3)C1)C2 [Compound 48] | 74.9 |  |  |
| O=CC12CC3CC(CC(C3)C1)C2 [Compound 49, 1-adamantanecarboaldehyde] | 65.1 |  |  |
| O=C1C2CC3CC(C2)CC1C3 [Compound 50] | 69.6 |  |  |
| O=C1C2CC3CC1CC(C2)C3=O [Compound 52, 2,6-diadamantone] | 59.1 |  |  |
| OC1(C(F)(F)F)C2CC3CC(C2)CC1C3 (stereo not drawn) [Compound 53, 2-trifluoromethyl-2-adamantol] | 82.9 |  |  |
| O=[N+]([O-])C12CC3CC(CC(C3)C1)C2 [Compound 54, 1-nitroadamantane] | 87.2 |  |  |
| Cl.NC1C[C@@H]2C[C@@H]3CC1[C@H](C2)C3 (stereo partly drawn) [Compound S1, (2S,3aS,5R)-octahydro-1H-2,5-methanoinden-7-aminium chloride] |  | 94.2 |  |
| Cl.NC12CC3CCC(CC(C3)C1)C2 [Compound S2, tricyclo[4.3.1.13,8]undecan-1-aminium chloride] |  | 81.3 |  |
| O=[N+]([O-])C1C2CC3CC(C2)CC1C3 (stereo not drawn) [Compound S3] |  | 85.6 |  |
| CC1(O)C2CC3CC(C2)CC1C3 (stereo not drawn) [Compound S4] |  | 85.8 |  |
| CC1(N)C2CC3CC(C2)CC1C3 (stereo not drawn) [Compound S5] |  | 65.0 |  |
| NC1(C(F)(F)F)C2CC3CC(C2)CC1C3 (stereo not drawn) [Compound S6] |  | 86.3 | IC50: 10.1 µM |
| NS(=O)(=O)NC1C2CC3CC(C2)CC1C3 (stereo not drawn) [Compound S7] |  | 81.6 |  |
| OC1(C(F)(F)F)C2CC3CC(C2)CC1C3 (stereo not drawn) [Compound S8] |  | 82.9 | IC50: 13.8 µM |
| O=[N+]([O-])C12CC3CC(CC(C3)C1)C2 [Compound S9] |  | 87.2 |  |
| Cl.NC12CCC3CC(CC(C3)C1)C2 [Compound S12] |  | 92 |  |
| O=C1C2CC3CC(C2)CC1C3 [Compound S13] |  | 69.6 | IC50: 28.8 µM |
| Cl.NC1CCC2(CC1)C1CC3CC(C1)CC2C3 (stereo not drawn) [Compound S15, (1r, 3r,5r,7r)-spiro[adamantane-2,1′-cyclohexan]-4′-aminium chloride] |  |  | inhibition at 100 µM [1]: 89.1 ± 1.3% |
| CC(N)C12CC3CC(CC(C3)C1)C2 (stereo not drawn) [Rimantadine, reference compound] |  |  | inhibition at 100 µM [1]: 91.2 ± 0.9% |
